Read-outs that look alike come from different tables or passages of the source.
Tests used:
[1] = biological target: T1, panel of 255 wild-type kinases (Homo sapiens, UniProt P36888); experiment: Kinase panel profiling at 1 µmol/L (MSA or IMAP), percentage inhibition; type: biochemical; details: read-out: %-inhibition at 1 µmol/L, FLT3
T1 sequence (P36888 27-993): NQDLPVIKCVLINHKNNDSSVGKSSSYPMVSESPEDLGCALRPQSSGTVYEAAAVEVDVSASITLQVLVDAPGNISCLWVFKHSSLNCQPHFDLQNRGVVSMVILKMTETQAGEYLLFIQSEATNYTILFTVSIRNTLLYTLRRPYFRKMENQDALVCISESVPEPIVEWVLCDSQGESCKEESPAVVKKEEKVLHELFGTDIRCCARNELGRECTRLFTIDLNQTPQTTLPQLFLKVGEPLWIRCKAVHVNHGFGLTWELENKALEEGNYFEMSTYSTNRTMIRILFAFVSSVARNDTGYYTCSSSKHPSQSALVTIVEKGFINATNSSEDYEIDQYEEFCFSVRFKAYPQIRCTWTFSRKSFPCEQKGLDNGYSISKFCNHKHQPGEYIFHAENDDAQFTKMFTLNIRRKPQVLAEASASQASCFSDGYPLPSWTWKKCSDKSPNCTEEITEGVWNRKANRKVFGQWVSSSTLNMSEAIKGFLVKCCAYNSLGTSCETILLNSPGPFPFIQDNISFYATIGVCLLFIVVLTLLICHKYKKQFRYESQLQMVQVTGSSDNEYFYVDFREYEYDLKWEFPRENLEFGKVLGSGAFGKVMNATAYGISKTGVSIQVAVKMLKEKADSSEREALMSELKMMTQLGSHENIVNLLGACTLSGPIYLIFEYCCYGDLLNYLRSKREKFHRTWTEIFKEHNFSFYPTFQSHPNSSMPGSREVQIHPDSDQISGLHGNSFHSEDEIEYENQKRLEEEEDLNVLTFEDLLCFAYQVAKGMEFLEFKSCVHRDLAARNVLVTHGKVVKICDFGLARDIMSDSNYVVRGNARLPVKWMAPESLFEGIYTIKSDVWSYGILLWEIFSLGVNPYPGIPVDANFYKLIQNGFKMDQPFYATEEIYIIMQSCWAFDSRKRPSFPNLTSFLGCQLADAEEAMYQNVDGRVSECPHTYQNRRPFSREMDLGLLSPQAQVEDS

[2] = biological target: T2, panel of 255 wild-type kinases (Homo sapiens, UniProt Q8TD19); experiment: as above; type: biochemical; details: read-out: %-inhibition, NEK9
T2 sequence (Q8TD19 1-979): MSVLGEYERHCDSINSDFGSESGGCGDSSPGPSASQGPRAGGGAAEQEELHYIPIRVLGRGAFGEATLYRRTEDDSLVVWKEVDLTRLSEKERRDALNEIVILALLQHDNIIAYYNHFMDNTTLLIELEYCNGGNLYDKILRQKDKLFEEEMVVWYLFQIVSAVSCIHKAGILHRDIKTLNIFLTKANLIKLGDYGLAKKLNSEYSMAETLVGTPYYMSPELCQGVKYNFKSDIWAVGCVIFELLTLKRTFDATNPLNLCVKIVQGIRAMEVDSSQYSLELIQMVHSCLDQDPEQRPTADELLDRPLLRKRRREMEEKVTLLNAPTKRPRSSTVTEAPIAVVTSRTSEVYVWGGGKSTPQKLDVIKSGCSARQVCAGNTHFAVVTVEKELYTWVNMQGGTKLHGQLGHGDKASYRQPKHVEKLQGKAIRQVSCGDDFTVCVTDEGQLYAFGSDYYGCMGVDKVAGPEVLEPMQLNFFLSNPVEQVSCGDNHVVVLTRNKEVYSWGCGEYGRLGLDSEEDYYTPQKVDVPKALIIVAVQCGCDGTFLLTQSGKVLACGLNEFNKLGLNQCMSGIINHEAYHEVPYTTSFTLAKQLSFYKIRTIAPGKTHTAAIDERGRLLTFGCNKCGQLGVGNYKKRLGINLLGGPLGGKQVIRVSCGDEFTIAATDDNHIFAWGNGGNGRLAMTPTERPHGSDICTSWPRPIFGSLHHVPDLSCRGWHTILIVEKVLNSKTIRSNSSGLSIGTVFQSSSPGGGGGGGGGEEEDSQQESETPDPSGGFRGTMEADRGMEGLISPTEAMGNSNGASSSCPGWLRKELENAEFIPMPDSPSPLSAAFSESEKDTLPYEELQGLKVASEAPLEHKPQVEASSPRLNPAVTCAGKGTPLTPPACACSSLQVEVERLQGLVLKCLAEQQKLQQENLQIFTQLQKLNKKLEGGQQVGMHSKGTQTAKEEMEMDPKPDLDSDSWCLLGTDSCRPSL

[3] = biological target: panel of 255 wild-type kinases (Homo sapiens, UniProt P78362); details: cited from earlier work
[4] = biological target: T3, panel of 255 wild-type kinases (Homo sapiens, UniProt Q96KB5); details: cited from earlier work
T3 sequence (Q96KB5 1-322): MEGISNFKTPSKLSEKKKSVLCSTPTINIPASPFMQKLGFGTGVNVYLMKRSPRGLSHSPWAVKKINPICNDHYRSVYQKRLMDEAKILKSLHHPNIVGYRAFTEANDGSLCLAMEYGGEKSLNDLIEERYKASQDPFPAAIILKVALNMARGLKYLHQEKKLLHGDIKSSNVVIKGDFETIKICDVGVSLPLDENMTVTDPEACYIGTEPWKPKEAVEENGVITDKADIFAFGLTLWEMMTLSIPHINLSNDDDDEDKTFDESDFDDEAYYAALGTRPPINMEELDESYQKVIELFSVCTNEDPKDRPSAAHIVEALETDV

[5] = biological target: T4, panel of 255 wild-type kinases (Homo sapiens, UniProt Q96PN8); details: cited from earlier work
T4 sequence (Q96PN8 1-268): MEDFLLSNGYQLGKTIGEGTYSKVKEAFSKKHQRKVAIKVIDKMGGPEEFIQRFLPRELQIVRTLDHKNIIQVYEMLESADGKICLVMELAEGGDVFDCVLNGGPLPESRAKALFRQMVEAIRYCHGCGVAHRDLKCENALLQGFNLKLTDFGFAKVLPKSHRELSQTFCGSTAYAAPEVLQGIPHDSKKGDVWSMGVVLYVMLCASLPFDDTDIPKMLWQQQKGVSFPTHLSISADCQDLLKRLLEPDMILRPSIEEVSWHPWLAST

[6] = kinase FLT3, 1 µmol/L single concentration
[7] = NEK9, 1 µmol/L single concentration
[8] = kinase SRPK2, 1 µmol/L single concentration, ref DOI: 10.1158/1535-7163.MCT-18-0877
[9] = kinase PBK, 1 µmol/L single concentration, ref DOI: 10.1158/1535-7163.MCT-18-0877
[10] = kinase TSSK3, 1 µmol/L single concentration, ref DOI: 10.1158/1535-7163.MCT-18-0877

| inhibition at 1 µM [1, 6] [%] | IC50 (134 cancer cell lines) [nM] | SMILES | inhibition at 1 µM [2, 7] [%] | also measured |
| --- | --- | --- | --- | --- |
| 52 | 99 | Cn1cnc2c(F)c(Nc3ccc(Br)cc3Cl)c(C(=O)NOCCO)cc21 [selumetinib] | 0.727 |  |
| 99 | 3850 | COc1ccc(CN2C3CC2CN(c2ccc(-c4cc(OCC(C)(C)O)cn5ncc(C#N)c45)cn2)C3)cn1 [selpercatinib] | -0.802 |  |
| 6 | > 31600 | O=C(Nc1cnn2ccc(N3CCC[C@@H]3c3cc(F)ccc3F)nc12)N1CC[C@H](O)C1 [larotrectinib] | -4.43 |  |
|  |  | CCc1cc2c(cc1N1CCC(N3CCOCC3)CC1)C(C)(C)c1[nH]c3cc(C#N)ccc3c1C2=O [alectinib] |  | %-inhibition at 1 µmol/L, SRPK2 [3, 8]: 93%; %-inhibition at 1 µmol/L, PBK [4, 9]: -2.63%; %-inhibition at 1 µmol/L, TSSK3 [5, 10]: -3.58% |
|  |  | CNC(=O)c1ccc(-c2cnc3ncc(Cc4ccc5ncccc5c4)n3n2)cc1F [capmatinib] |  | inhibition at 1 µM [1]: 50%; inhibition at 1 µM [2]: -1.11% |
| 10 | 4240 | C[C@H](Nc1ncnc2nc[nH]c12)c1cc2cccc(Cl)c2c(=O)n1-c1ccccc1 [duvelisib] | 1.7 |  |
|  |  | CC#CC(=O)N1CCC[C@H]1c1nc(-c2ccc(C(=O)Nc3ccccn3)cc2)c2c(N)nccn12 [acalabrutinib] |  | %-inhibition at 1 µmol/L, SRPK2 [3, 8]: 0.686%; %-inhibition at 1 µmol/L, PBK [4, 9]: -15%; %-inhibition at 1 µmol/L, TSSK3 [5, 10]: -8% |
| 101 | 2640 | CO[C@]1(C(=O)N[C@@H](C)c2ccc(-n3cc(F)cn3)nc2)CC[C@H](c2nc(C)cc(Nc3cc(C)[nH]n3)n2)CC1 [pralsetinib] | 16 |  |
| 48 | 6880 | Cc1cc(Nc2ncnc3ccc(NC4=NC(C)(C)CO4)cc23)ccc1Oc1ccn2ncnc2c1 [tucatinib] | -2 |  |
| 12 |  | Cn1cnc2c(F)c(Nc3ccc(Br)cc3F)c(C(=O)NOCCO)cc21 [binimetinib] | -6.59 |  |
| 6 | 534 | Cc1nc(NC(=O)N2CCC[C@H]2C(N)=O)sc1-c1ccnc(C(C)(C)C(F)(F)F)c1 [alpelisib] | 2.8 |  |
|  |  | C=CC(=O)Nc1cc(Nc2nccc(-c3cn(C)c4ccccc34)n2)c(OC)cc1N(C)CCN(C)C [osimertinib] |  | %-inhibition at 1 µmol/L, SRPK2 [3, 8]: 3.77%; %-inhibition at 1 µmol/L, PBK [4, 9]: 77%; %-inhibition at 1 µmol/L, TSSK3 [5, 10]: -0.941% |
| 56 | 18 | COc1cc2ncnc(Nc3ccc(F)c(Cl)c3)c2cc1NC(=O)/C=C/CN1CCCCC1 [dacomitinib] | -1.05 |  |
|  |  | CO[C@@H]1[C@H](N(C)C(=O)c2ccccc2)C[C@H]2O[C@]1(C)n1c3ccccc3c3c4c(c5c6ccccc6n2c5c31)C(=O)NC4 [midostaurin] |  | %-inhibition at 1 µmol/L, SRPK2 [3, 8]: 25%; %-inhibition at 1 µmol/L, PBK [4, 9]: -7%; %-inhibition at 1 µmol/L, TSSK3 [5, 10]: -2.3% |
|  |  | COc1cc(N2CCC(N3CCN(C)CC3)CC2)ccc1Nc1ncc(Cl)c(Nc2ccccc2P(C)(C)=O)n1 [brigatinib] |  | %-inhibition at 1 µmol/L, SRPK2 [3]: 10%; %-inhibition at 1 µmol/L, PBK [4]: 1.09%; %-inhibition at 1 µmol/L, TSSK3 [5]: 3% |
|  |  | C=CC(=O)N1CCC[C@@H](n2nc(-c3ccc(Oc4ccccc4)cc3)c3c(N)ncnc32)C1 [ibrutinib] |  | %-inhibition at 1 µmol/L, SRPK2 [3, 8]: 3%; %-inhibition at 1 µmol/L, PBK [4, 9]: -9%; %-inhibition at 1 µmol/L, TSSK3 [5, 10]: -4% |

| SMILES | inhibition at 1 µM [1, 6] [%] | IC50 (134 cancer cell lines) [nM] | inhibition at 1 µM [2, 7] [%] | also measured |
| --- | --- | --- | --- | --- |
| CCN1C(=O)N(c2c(F)c(OC)cc(OC)c2F)Cc2cnc3[nH]c(CN4CCOCC4)cc3c21 [pemigatinib] | 8 |  | -1.57 |  |
| FC(F)(F)c1ccc(CNc2ccc(Cc3c[nH]c4ncc(Cl)cc34)cn2)cn1 [pexidartinib] | 55 | > 31600 | 1.33 |  |
| C=CC(=O)N1CCC([C@@H]2CCNc3c(C(N)=O)c(-c4ccc(Oc5ccccc5)cc4)nn32)CC1 [zanubrutinib] | 22 |  | -2 |  |
| C[C@H]1Oc2cc(cnc2N)-c2c(nn(C)c2C#N)CN(C)C(=O)c2ccc(F)cc21 [lorlatinib] | 13 |  | 6 |  |
| CCN1CCN(c2ccc(Nc3cc(N(C)C(=O)Nc4c(Cl)c(OC)cc(OC)c4Cl)ncn3)cc2)CC1 [infigratinib] |  | > 3160 | 10 |  |
| COC(=O)N[C@@H](C)CNc1nccc(-c2cn(C(C)C)nc2-c2cc(Cl)cc(NS(C)(=O)=O)c2F)n1 [encorafenib] | 9 | 592 | -4.26 |  |
| CCc1nc(C(N)=O)c(Nc2ccc(N3CCC(N4CCN(C)CC4)CC3)c(OC)c2)nc1NC1CCOCC1 [gilteritinib] | 99 | 237 | 21 |  |
| CN1CCN(c2ccc(C(=O)Nc3n[nH]c4ccc(Cc5cc(F)cc(F)c5)cc34)c(NC3CCOCC3)c2)CC1 [entrectinib] |  | 7820 | 17 |  |
| Cn1cc(-c2cc3c(N4CCN(c5ncc([C@@](C)(N)c6ccc(F)cc6)cn5)CC4)ncnn3c2)cn1 [avapritinib] | 100 |  | 30 |  |
| CCn1c(=O)c(-c2cc(NC(=O)Nc3ccccc3)c(F)cc2Br)cc2cnc(NC)cc21 [ripretinib] | 46 |  | -2.78 |  |

Reference: paper PMC9516332 (Frontiers in Oncology, 2022)
